{"source": "patent US20070009956A1", "about": "(Council of Scientific and Industrial Research, priority 2003, published 2007)", "key": {"α-crystallin [1]": {"biological_target": "T1, α-crystallin (Bos taurus, UniProt P02470+P02510)", "T1 construct": "α-Crystallin was purified from calf eye lenses previously described (24); from tissue; host or cells: calf eye lenses", "T1 sequence (P02470 1-173)": "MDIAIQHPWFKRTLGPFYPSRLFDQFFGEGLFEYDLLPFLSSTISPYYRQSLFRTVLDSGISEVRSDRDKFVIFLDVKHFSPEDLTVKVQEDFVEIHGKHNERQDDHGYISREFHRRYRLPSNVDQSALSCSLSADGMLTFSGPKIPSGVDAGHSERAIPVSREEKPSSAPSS", "T1 sequence (P02510 1-175)": "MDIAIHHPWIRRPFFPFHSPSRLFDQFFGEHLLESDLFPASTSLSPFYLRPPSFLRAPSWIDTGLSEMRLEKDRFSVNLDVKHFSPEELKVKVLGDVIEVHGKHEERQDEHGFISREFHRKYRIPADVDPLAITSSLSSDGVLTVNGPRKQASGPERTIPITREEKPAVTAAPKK", "experiment": "Circular dichroism spectra", "set-up": "species or system calf", "method": "Circular dichroism spectra were recorded using a Jasco J-715 Spectropolarimeter. All spectra are the average of 4 accumulations."}, "α-crystallin [2]": {"biological_target": "T1, α-crystallin", "experiment": "Thermally induced aggregation of ξ-crystallin at 43° C., chaperone activity of α-crystallin", "type": "biochemical, calf", "conditions": "1:4 (w/w) α- to ξ-crystallin, preincubation with 100 mM Arg.HCl, 53% without", "method": "Chaperone activity measurement of α-crystallin towards the thermal aggregation of ε-crystallin was performed as described in our earlier study (25). Buffer A either in the absence or in the presence of α-crystallin (0.025 mg/ml) and required concentrations of Arg.HCl was incubated at 43° C. for 3 min in the thermostated cuvette holder of the fluorescence spectrophotometer. ε-Crystallin was then added to a final concentration of 0.1 mg/mL The extent of aggregation was monitored as a function of time by measring the scalr of 465 nm light as descnbed above, […]"}, "[3]": {"biological_target": "T2, recombinant human αB-crystallin (Homo sapiens, UniProt P02511)", "T2 construct": "made in house; host or cells: Escherichia coli", "T2 sequence (P02511 1-175)": "T1 sequence (P02510 1-175) with A40T, I61F, A132T, A152V", "experiment": "DTT-induced aggregation of insulin, chaperone-like activity of αB-crystallin", "type": "biochemical", "conditions": "37° C., 1:4 (w/w) to insulin"}, "α-crystallin [4]": {"biological_target": "T1, α-crystallin", "experiment": "ANS binding fluorescence", "set-up": "species or system calf", "conditions": "37° C., 100 mM Arg.HCl", "method": "To study the binding of the hydrophobic probe, ANS, to α-crystallin, 12 uL of 10 mM methanolic solution of ANS was added to 1.2 ml of a 0.5 mg/ml solution of α-crystallin in Buffer A alone or in the buffer containing the required concentrations of Arg.HCl. The samples were excited at 365 nm and emission spectra recorded from 400-600 nm at 37° C. […] All spectra were corrected for the respective blanks. Spectra were recorded in the corrected spectrum mode."}, "α-crystallin [5]": {"biological_target": "T1, α-crystallin", "experiment": "Intrinsic tryptophan fluorescence", "set-up": "species or system calf", "conditions": "37° C., in the presence of Arg.HCl", "method": "Fluorescence spectra were recorded using a Hitachi F-4000 Fluorescence Spectrophotometerequipped with a thermostated cuvette holder. All the studies were performed at 37° C. All spectra were recorded in the corrected spectrum mode. The nirinsic tryptophan fluorescence spectra of α-crystllin (0.2 mg/ml) in Buffer A alone or in the buffer containing the required concentrations of Arg.HCl were recorded by exciting the sample at 295 nm with the excitation and emission band passes set at 3 nm."}, "insulin": {"test_system": "insulin", "experiment": "DTT-induced aggregation of insulin without α-crystallin", "type": "biochemical", "conditions": "37° C., no α-crystallin"}, "α-crystallin [6]": {"biological_target": "T1, α-crystallin", "experiment": "Glycerol gradient sedimentation", "set-up": "species or system calf", "method": "Glycerol gradient centrifugation was carried out essentially as described by Lambert et al. (43). α-Crystallin, α-A- or α-B-crystallin (2 mg/ml) was incubated in 50 mM Tris HCl buffer (pH 7.4) containing 100 mM NaCl, 1 mM EDTA alone or in the presence of 300 mM Arg.HCl for 2 hours at 37° C. The samples (0.5 ml) were loaded on top of a 12 ml linear grddient of glycerol (10-40%) made in 50 mM Tris-HCl buffer, pH 7.4, containing 100 mM NaCl and 1 mM EDTA. Arg.HCl-treated α-crystllin samples were run in the gradient also containing 300 mM Arg.HCl. The tubes were centriflged for 18 hours at 30000 rpm in a Beckman SW41 rotor at 4° C. Fractions (0.3 ml) were withdrawn from the top using a Haake-Buchler Auto Densi-Flowt HC gradient former/remover and optical density at 280 nm of the fractions were measured using a Shimadzu W-1601 spectrophotometer. To estimate the molecular masses of the α-crystallin samples, proteins with defined molecular masses such as thyroglobulin (669 kDa), catalase (240 kDa) and aldolase (158 kDa) were used."}, "[7]": {"biological_target": "T3, calf eye lens α-crystallin (Bos taurus, UniProt P02470+P02510)", "T3 sequence (P02470 1-173)": "T1 sequence (P02470 1-173)", "T3 sequence (P02510 1-175)": "T1 sequence (P02510 1-175)", "experiment": "DTT-induced aggregation of insulin, chaperone-like activity of α-crystallin", "conditions": "for protection offered by α-crystallin: 25° C., α-crystallin to insulin 1:1 (w/w); for effect on the chaperone-like activity of α-crystallin: α-crystallin 0.1 mg/ml, insulin 0.2 mg/ml; for percent protection offered by α-crystallin: 36% in the absence of Lys.HCl"}, "[8]": {"biological_target": "T4, recombinant human αA-crystallin (Homo sapiens, UniProt P02489)", "T4 construct": "made in house; host or cells: Escherichia coli", "T4 sequence (P02489 1-173)": "T1 sequence (P02470 1-173) with I3V, A4T, E91D, S142C, P147Q, S148T, V150L, G153T, S155A, S168T", "experiment": "DTT-induced aggregation of insulin, chaperone-like activity of αA-crystallin", "type": "biochemical", "conditions": "37° C., 1:2 (w/w) to insulin"}, "R116C αA-crystallin": {"biological_target": "T5, R116C αA-crystallin (Homo sapiens, UniProt P02489, R116C)", "T5 sequence (P02489 1-173 R116C)": "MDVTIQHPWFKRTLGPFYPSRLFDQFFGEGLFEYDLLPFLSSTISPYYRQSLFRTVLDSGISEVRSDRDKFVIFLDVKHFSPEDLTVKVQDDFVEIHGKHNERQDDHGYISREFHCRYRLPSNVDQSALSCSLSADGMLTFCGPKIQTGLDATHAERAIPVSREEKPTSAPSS", "type": "biochemical", "conditions": "500 mM, data not shown"}, "R120G αB-crystallin": {"biological_target": "T6, R120G αB-crystallin (Homo sapiens, UniProt P02511, R120G)", "T6 sequence (P02511 1-175 R120G)": "T1 sequence (P02510 1-175) with A40T, I61F, R120G, A132T, A152V", "type": "biochemical", "conditions": "37° C., 0.5:1 ratio to insulin, 300 mM Arg.HCl; negative protection without"}, "α-crystallin [9]": {"biological_target": "T7, α-crystallin (Homo sapiens, UniProt P02489+P02511)", "T7 sequence (P02489 1-173)": "T5 sequence (P02489 1-173 R116C) with C116R", "T7 sequence (P02511 1-175)": "T1 sequence (P02510 1-175) with A40T, I61F, A132T, A152V", "conditions": "0.8-1.0 M Gdn.HCl; cited from earlier work"}, "Hsp 16.3": {"biological_target": "Hsp 16.3 (Mycobacterium tuberculosis, UniProt P9WMK1)", "sequence (P9WMK1 whole entry)": "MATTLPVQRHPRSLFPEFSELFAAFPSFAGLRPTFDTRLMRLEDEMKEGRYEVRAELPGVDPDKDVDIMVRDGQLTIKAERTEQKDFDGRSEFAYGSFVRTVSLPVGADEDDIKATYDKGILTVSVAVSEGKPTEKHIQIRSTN", "conditions": "Gdn.HCl-induced perturbation of structure; cited from earlier work"}, "diabetic rats": {"test_system": "diabetic rats", "conditions": "rat, in vivo; cited from earlier work"}, "Shumiya cataract rats": {"test_system": "Shumiya cataract rats", "conditions": "fed orally; cited from earlier work"}}, "note": "Changes are numbered by the printed parent chain. “Also recorded” adds a separate entry of the source. Where a name gives a salt, the structure may show the parent alone.", "data": [{"smiles": "Cl.N=C(N)NCCCC(N)C(=O)O", "note": "(racemic) [DL-Arg.HCl, DLarginine hydrochloride]", "values": [{"measurement": "far-UV CD spectra, secondary structure of α-crystallin", "setting": "α-crystallin [1]; 37° C., DL-Arg.HCl", "value": "is not altered"}]}, {"smiles": "Cl.N=C(N)NCCC[C@H](N)C(=O)O", "note": "[Arg.HCl, Arginine hydrochloride]", "values": [{"measurement": "protective ability of α-crystallin against aggregation of ξ-crystallin", "setting": "α-crystallin [2]", "value": "~81", "unit": "%"}, {"measurement": "effect on the chaperone-like activity of αB-crystallin", "setting": "[3]", "value": "enhanced the activity"}, {"measurement": "increase in the fluorescence intensity of ANS at the emission maximum", "setting": "α-crystallin [4]", "value": "~38", "unit": "%"}, {"measurement": "intrinsic tryptophan fluorescence spectrum of α-crystallin", "setting": "α-crystallin [5]", "value": "did not change considerably"}, {"measurement": "aggregation of insulin, additive alone", "setting": "insulin", "value": "significantly increased aggregation"}, {"measurement": "near-UV CD spectra of α-crystallin", "setting": "α-crystallin [1]; 37° C., 100, 200, 300 mM Arg.HCl, region 270-290 nm", "value": "subtle conformational changes at the tertiary structural level"}, {"measurement": "half-width of the sedimentation profile of α-crystallin", "setting": "α-crystallin [6]; 300 mM Arg.HCl, 8.75 in the absence", "value": 6.25, "unit": "x-axis units"}, {"measurement": "molecular mass of α-crystallin", "setting": "α-crystallin [6]; 300 mM Arg.HCl, ~700 kDa in the absence", "value": "~360", "unit": "kDa"}, {"measurement": "protection offered by α-crystallin", "setting": "[7]; 100 mM Arg.HCl, approximately 13% without", "value": 28, "unit": "%"}, {"measurement": "protection offered by α-crystallin", "setting": "[7]; 300 mM Arg.HCl", "value": "almost completely prevented"}, {"measurement": "prevention of aggregation of insulin by α-crystallin", "setting": "[7]; 37° C., 1:2 (w/w) α-crystallin:insulin, 200 mM Arg.HCl, ~36% without additive", "value": "completely"}, {"measurement": "effect on the chaperone-like activity of α-crystallin", "setting": "[7]; 37° C.", "value": "comparable"}, {"measurement": "effect on the chaperone-like activity of αA-crystallin", "setting": "[8]", "value": "enhanced the activity"}, {"measurement": "effect on the activity of R116C αA-crystallin", "setting": "R116C αA-crystallin", "value": "did not enhance"}, {"measurement": "extent of protection by R120G αB-crystallin", "setting": "R120G αB-crystallin", "value": "~75", "unit": "%"}]}, {"smiles": "N=C(N)N", "note": "[Gdn.HCl, guanidine hydrochloride]", "values": [{"measurement": "chaperone-like activity of α-crystallin", "setting": "α-crystallin [9]", "value": "enhancement in its chaperone-like activity"}, {"measurement": "effect on the chaperone-like activity of α-crystallin", "setting": "[7]; 37° C., hydrochloride", "value": "comparable"}, {"measurement": "chaperone-like activity of Hsp 16.3", "setting": "Hsp 16.3", "value": "enhanced"}]}, {"smiles": "Cl.NCCCC[C@H](N)C(=O)O", "note": "[Lys.HCl, Lysine hydrochloride]", "values": [{"measurement": "near-UV CD spectrum of α-crystallin in the presence of Lys.HCl", "setting": "α-crystallin [1]; data not shown", "value": "change in the near-UV CD spectrum"}, {"measurement": "size of α-crystallin in the presence of Lys.HCl", "setting": "α-crystallin [6]; data not shown", "value": "change in the near-UV CD spectrum and size"}, {"measurement": "percent protection offered by α-crystallin", "setting": "[7]; 37° C., 100 mM Lys.HCl", "value": 17, "unit": "%"}, {"measurement": "percent protection offered by α-crystallin", "setting": "[7]; 37° C., 300 mM Lys.HCl", "value": "about 8%"}, {"measurement": "effect on the chaperone-like activity of α-crystallin", "setting": "[7]; 37° C., hydrochloride", "value": "did not enhance; also recorded: decreased the activity"}]}, {"smiles": "N=C(N)NN", "note": "[aminoguanidine]", "values": [{"measurement": "cataract formation", "setting": "diabetic rats", "value": "inhibit cataract formation"}, {"measurement": "opacification of the lens", "setting": "Shumiya cataract rats", "value": "inhibited the opacification of the lens"}]}]}
